Assay results: publication PMC8316002, “Inhibition of Escherichia coli Lipoprotein Diacylglyceryl Transferase Is Insensitive to Resistance Caused by Deletion of Braun’s Lipoprotein” (Journal of Bacteriology, 2021)
≈ marks a conversion by molar mass, not a printed value. Like-named read-outs stand apart in the source and are kept apart here. Where a SMILES comes first, the peptide text is derived from it. Bridges are numbered along the chain shown (N, C = ends). [ ]: non-standard residue; d: D form. Bip = N[C@@H](Cc1ccc(-c2ccccc2)cc1)C(=O)O; NMeF = CN[C@@H](Cc1ccccc1)C(=O)O

Columns and labels:
CFT073 + EDTA = test: microbe, parasite or virus in culture; type: cell-based, E. coli; details: average of at least four independent experiments in duplicates
Protocol: (§1) Unless stated otherwise, E. coli cells were grown in Luria-Bertani (LB) medium (0.5% yeast extract, 1% tryptone, 0.5% NaCl) at 37°C. Where indicated, kanamycin (Kan) was added to culture media at a 50-μg/ml final concentration. MIC assays were performed based on Clinical and Laboratory Standards Institute (CLSI) guidelines. For in vitro growth curves, overnight cultures of WT CFT073, CFT073 Δlgt, and CFT073 Δlgt complemented with lgt from E. coli (lgt^Ec) or P. aeruginosa (lgt^Pa) were grown to mid-exponential phase (optical density at 600 nm [OD600] of 0.6) and then diluted to an OD600 of 0.1 to initiate growth curves. At various times, culture aliquots were diluted and plated in dilutions on LB+Kan agar, and CFU were enumerated in duplicates. Growth of MG1655 inducible deletion strains was measured by culturing in the presence of 2-fold dilutions of arabinose (starting arabinose concentrations for CFT073 and MG1655 inducible deletion strains were 4% and 0.8%, respectively). While […] was sufficient for WT growth of MG1655 Δlgt, 4% arabinose was used for CFT073 Δlgt based on comparing its growth to that of WT CFT073 as measured by CFU. OD600 growth measurements were performed using an EnVision 2101 multilabel reader plate reader (PerkinElmer) linked with Echo liquid handler (Labcyte). For time-kill experiments, bacteria were harvested in mid-exponential phase and treated with 12.5 μM G2824, 3.2 μM globomycin, and 1.6 μM vancomycin. CFU were enumerated at various times posttreatment. Bacterial culture medium containing 2% arabinose was used to induce lpp or lppΔK expression from pBad24 plasmids. Bacterial viability at different time points during the treatment was measured by enumerating CFU. Serum killing assays were carried out as previously described ([17]).

CFT073 imp4213 Δlpp = test: microbe, parasite or virus in culture; type: cell-based, E. coli
Protocol: as §1

CFT073 imp4213 = test: microbe, parasite or virus in culture; type: cell-based, E. coli; details: average of at least four independent experiments in duplicates
Protocol: as §1

CFT073 Δlpp + EDTA = test: microbe, parasite or virus in culture; type: cell-based, E. coli
Protocol: as §1

CFT073 Δlpp = test: microbe, parasite or virus in culture; type: cell-based, E. coli
Protocol: as §1

CFT073 = test: microbe, parasite or virus in culture; type: cell-based, E. coli; details: average of at least four independent experiments in duplicates
Protocol: as §1

MG1655 + EDTA = test: microbe, parasite or virus in culture; type: cell-based, E. coli; details: average of at least four independent experiments in duplicates
Protocol: as §1

MG1655 Δlpp + EDTA = test: microbe, parasite or virus in culture; type: cell-based, E. coli
Protocol: as §1

MG1655 Δlpp = test: microbe, parasite or virus in culture; type: cell-based, E. coli
Protocol: as §1

MG1655 = test: microbe, parasite or virus in culture; type: cell-based, E. coli; details: average of at least four independent experiments in duplicates
Protocol: as §1

[1] = test system: A. baumannii 19606 + EDTA; test: microbe, parasite or virus in culture; type: cell-based; details: average of two independent experiments in duplicates
Protocol: as §1

A. baumannii 19606 = test: microbe, parasite or virus in culture; type: cell-based; details: average of two independent experiments in duplicates
Protocol: as §1

P. aeruginosa PA14 = test: microbe, parasite or virus in culture; type: cell-based; details: average of two independent experiments in duplicates
Protocol: as §1

S. aureus USA300 = test: microbe, parasite or virus in culture; type: cell-based
Protocol: as §1

PA14 + EDTA = test: microbe, parasite or virus in culture; type: cell-based, P. aeruginosa; details: average of two independent experiments in duplicates
Protocol: as §1

in vitro = type: cell-based; details: human, representative of three independent replicates, read-out: EC50, mammalian cytotoxicity
Source text: TABLE 2 Growth inhibition of a panel of bacterial strains and eukaryotic cells by G9066, G2824, globomycin, and vancomycin | column: MIC or EC50 (μM)^a / G9066; MIC or EC50 (μM)^a / G2824; MIC or EC50 (μM)^a / Globomycin; MIC or EC50 (μM)^a / Vancomycin

[2] = CFT073 imp4213 Δlpp, average of at least four independent experiments in duplicates
[3] = CFT073 Δlpp + EDTA, average of at least four independent experiments in duplicates
[4] = CFT073 Δlpp, average of at least four independent experiments in duplicates
[5] = MG1655 Δlpp + EDTA, average of at least four independent experiments in duplicates
[6] = MG1655 Δlpp, average of at least four independent experiments in duplicates
[7] = S. aureus USA300, average of two independent experiments in duplicates
[8] = Escherichia coli, read-out: MIC

| Structure (SMILES) | MIC (CFT073 + EDTA) | MIC (CFT073 imp4213 Δlpp; [2]) | MIC (CFT073 imp4213) | MIC (CFT073 Δlpp + EDTA; [3]) | MIC (CFT073 Δlpp; [4]) | MIC (CFT073) | MIC (CFT073; read-out: MIC) | MIC (MG1655 + EDTA) | MIC (MG1655 Δlpp + EDTA; [5]) | MIC (MG1655 Δlpp; [6]) | MIC (MG1655) | MIC (MG1655; read-out: MIC) | MIC [1] | MIC (A. baumannii 19606) | MIC (P. aeruginosa PA14) | MIC (S. aureus USA300; [7]) | MIC (PA14 + EDTA) | EC50 (in vitro; 293T) | EC50 (in vitro; Hela) | EC50 (in vitro; HepG2) | further results |
| --- | --- | --- | --- | --- | --- | --- | --- | --- | --- | --- | --- | --- | --- | --- | --- | --- | --- | --- | --- | --- | --- |
| CN1C(=O)[C@H](Cc2ccc(-c3ccccc3)cc2)NC(=O)CNC(=O)[C@H](CC(=O)O)NC(=O)[C@@H](Cc2ccccc2)NC(=O)CSC[C@@H](C(=O)NCC(=O)N[C@@H](CCCCN)C(=O)N[C@@H](CCCCN)C(N)=O)NC(=O)[C@H](CCCNC(=N)N)NC(=O)[C@H](CO)NC(=O)[C@H](Cc2ccc(-c3ccccc3)cc2)NC(=O)[C@@H]1Cc1ccccc1 [G2824] ({CH2CO}-[dF]DG[Bip][NMeF][Bip]SRCGKK-NH2; thioether N-9) | 3.1 µM (≈ 5.1 µg/mL) | 8.9 µM (≈ 14.6 µg/mL) | 8.4 µM (≈ 13.8 µg/mL) | 2.3 µM | 62.5 µM (≈ 103 µg/mL) | ~100 µM (≈ 164 µg/mL) | 92 µM (≈ 151 µg/mL) | 3.1 µM (≈ 5.1 µg/mL) | 3.1 µM | 62.5 µM (≈ 103 µg/mL) | ~100 µM (≈ 164 µg/mL) | 93.8 µM (≈ 154 µg/mL) | 6.3 µM (≈ 10.4 µg/mL) | 37.5 µM (≈ 61.6 µg/mL) | >100 µM | >100 µM | 6.3 µM (≈ 10.4 µg/mL) | > 100 µM | > 100 µM | > 100 µM | – |
| CN1C(=O)[C@H](Cc2ccc(-c3ccccc3)cc2)NC(=O)CNC(=O)[C@H](CCCNC(=N)N)NC(=O)[C@@H](Cc2ccccc2)NC(=O)CSC[C@@H](C(=O)NCC(N)=O)NC(=O)[C@H](CCCNC(=N)N)NC(=O)[C@H](CO)NC(=O)[C@H](Cc2ccc(-c3ccccc3)cc2)NC(=O)[C@@H]1Cc1ccccc1 [G9066] ({CH2CO}-[dF]RG[Bip][NMeF][Bip]SRCG-NH2; thioether N-9) | 3.1 µM (≈ 4.43 µg/mL) | 6.8 µM (≈ 9.72 µg/mL) | 5.7 µM (≈ 8.14 µg/mL) | 1.6 µM | 31.3 µM (≈ 44.7 µg/mL) | ~100 µM (≈ 143 µg/mL) | – | 3.1 µM (≈ 4.43 µg/mL) | 3.1 µM | 31.3 µM (≈ 44.7 µg/mL) | ~100 µM (≈ 143 µg/mL) | >100 µM | 3.1 µM (≈ 4.43 µg/mL) | 37.5 µM (≈ 53.6 µg/mL) | >100 µM | 6.3 µM (≈ 9 µg/mL) | 6.3 µM (≈ 9 µg/mL) | > 100 µM | > 100 µM | > 100 µM | – |
| CCCCCC[C@H]1OC(=O)CNC(=O)[C@H]([C@H](C)O)NC(=O)[C@H](CO)NC(=O)[C@H]([C@H](C)CC)NC(=O)[C@H](CC(C)C)N(C)C(=O)[C@@H]1C [Globomycin] | 1.1 µM (≈ 0.721 µg/mL) | 11.5 µM (≈ 7.54 µg/mL) | 0.5 µM (≈ 0.328 µg/mL) | 4.7 µM | >100 µM | – | 29.2 µM (≈ 19.2 µg/mL) | 0.8 µM (≈ 0.525 µg/mL) | 12.5 µM | 50 µM (≈ 32.8 µg/mL) | – | 25 µM (≈ 16.4 µg/mL) | 0.6 µM (≈ 0.394 µg/mL) | 25 µM (≈ 16.4 µg/mL) | >100 µM | >100 µM | 50 µM (≈ 32.8 µg/mL) | > 100 µM | > 100 µM | > 100 µM | effect of lpp deletion on growth inhibition, CFT073, in words (CFT073 Δlpp; CFT073 Δlpp versus WT): resistant; effect of lpp deletion on growth inhibition, MG1655, in words (MG1655 Δlpp; MG1655 Δlpp versus WT): resistant |
| CN[C@H](CC(C)C)C(=O)N[C@H]1C(=O)N[C@@H](CC(N)=O)C(=O)N[C@H]2C(=O)N[C@H]3C(=O)N[C@H](C(=O)N[C@H](C(=O)O)c4cc(O)cc(O)c4-c4cc3ccc4O)[C@H](O)c3ccc(c(Cl)c3)Oc3cc2cc(c3O[C@@H]2O[C@H](CO)[C@@H](O)[C@H](O)[C@H]2O[C@H]2C[C@](C)(N)[C@H](O)[C@H](C)O2)Oc2ccc(cc2Cl)[C@H]1O [Vancomycin] | – | – | – | – | – | – | – | – | – | – | – | – | – | – | – | – | – | > 100 µM | > 100 µM | > 100 µM | MIC (CFT073 + EDTA; Escherichia coli): 0.8 µM (≈ 1.16 µg/mL); MIC (CFT073 imp4213 Δlpp; Escherichia coli): 0.7 µM (≈ 1.01 µg/mL); MIC (CFT073 imp4213; Escherichia coli): 0.6 µM (≈ 0.87 µg/mL); MIC (CFT073 Δlpp + EDTA; Escherichia coli): 0.8 µM (≈ 1.16 µg/mL); MIC (CFT073 Δlpp; Escherichia coli): > 100 µM; MIC (CFT073; [8]): > 100 µM; MIC (MG1655 + EDTA; Escherichia coli): 3.1 µM (≈ 4.49 µg/mL); MIC (MG1655 Δlpp + EDTA; Escherichia coli, MG1655): 0.8 µM (≈ 1.16 µg/mL); MIC (MG1655 Δlpp; Escherichia coli, MG1655): > 100 µM; MIC (MG1655; [8]): > 100 µM; MIC ([1]; Acinetobacter baumannii): 0.2 µM (≈ 0.29 µg/mL); MIC (A. baumannii 19606; Acinetobacter baumannii): > 100 µM; MIC (P. aeruginosa PA14; Pseudomonas aeruginosa): > 100 µM; MIC (S. aureus USA300; Staphylococcus aureus, USA300): 0.4 µM (≈ 0.58 µg/mL); MIC (PA14 + EDTA; Pseudomonas aeruginosa): 6.3 µM (≈ 9.13 µg/mL) |
